Key:
S. aureus ATCC 25923 = assay: MIC determination, broth micro-dilution (CAMHB); format: cell-based, Staphylococcus aureus; settings: Table 1; 37° C., 24 h
Description: (§1) Four strains of bacteria were chosen for the susceptibility tests: S. aureus ATCC 25923; MRSA (a wild clinical strain from the JCU culture collection); E. coli ATCC 25922 and P. aeruginosa ATCC 27853. The bacteria were grown on Mueller Hinton agar (OXOID, cat. No. CM0337) and suspended in growth medium cation-adjusted Mueller Hinton broth (CAMHB, OXOID, cat. No. CM0405). The MIC of each complex was determined in duplicate by standard micro-dilution methodology (British Society for Antimicrobial Chemotherapy Working Party, J. Antimicrob. Chemother., 1991, 27(suppl. D), 22) using gentamicin as the positive control. The ruthenium complexes were dissolved in CAMHB to a stock solution of […] and two-fold diluted in the broth in 96-well plates in a final volume of […] in each well. The same volume […] of bacterial suspension was added in each well making a concentration range of 0.25 mg ml^−1 to 128 mg ml^−1 for each complex. The plates were incubated at 37° C. for 24 h. The results are summarised in Table 1 below, using the following abbreviations: • Rubpm=ΔΔ-[{Ru(phen)2}2(μ-2,2′-bipyrimidine)]Cl4 • Rudppm=ΔΔ-[{Ru(phen)2}2(μ-4,6-bis(2-pyridyl)pyrimidine)]Cl4 • Rubb7trinuclear=Δ*Δ*-[{Ru*(phen)2}(μ-bb7){Ru(phen)}(μ-bb7){Ru*(phen)2}]Cl6 (only the two terminal metal centres are chiral, the two central metal centres are racemic) • Rubb7tetranuclear=Δ*Δ*-[{Ru*(phen)2}(μ-bb7) {Ru(phen)}(μ-bb7){Ru(phen)}(μ-bb7)-{Ru*(phen)2}]Cl8 (only the two terminal metal centres are chiral, the two central metal centres are racemic)
(§2) Further MIC assays and Minimum Bactericidal Concentration (MBC) assays were conducted against Gram-positive and Gram-negative bacterial strains using symmetric and non-symmetric, inert and labile complexes.

[1] = system: MRSA (a wild clinical strain from the JCU culture collection); assay: MIC determination, broth micro-dilution (CAMHB); format: cell-based, methicillin-resistant S. aureus; settings: Table 1; 37° C., 24 h
Description: as §1, §2

E. coli ATCC 25922 = assay: MIC determination, broth micro-dilution (CAMHB); format: cell-based, Escherichia coli; settings: Table 1; 37° C., 24 h
Description: as §1, §2

P. aeruginosa ATCC 27853 = assay: MIC determination, broth micro-dilution (CAMHB); format: cell-based, Pseudomonas aeruginosa; settings: Table 1; 37° C., 24 h
Description: as §1, §2

S. epidermidis = assay: Further MIC assays, whole spectrum bacteria (CAMHB); format: cell-based; settings: Table 3; Broth: CAMHB
Description: (§3) Further MIC assays were conducted against five different bacteria with Rubbn (n=7, 10, 12, 16), two rigid dinuclear species (bridges bpm and dppm) and Gentamicin—Whole spectrum bacteria MIC test results (Broth: CAMHB).

S. typhimurium = assay: as above; format: cell-based; settings: Table 3; Broth: CAMHB
Description: as §3

E. faecalis = assay: as above; format: cell-based; set-up: unit not given beside the values; settings: Table 3; Broth: CAMHB
Description: as §3

VRE = assay: as above; format: cell-based, vancomycin-resistant Enterococcus; settings: Table 3; Broth: CAMHB
Description: as §3

A. baumanii = assay: as above; format: cell-based; set-up: unit not given here; settings: Table 3; Broth: CAMHB
Description: as §3

human red blood cells = assay: Haemolytic assay; format: cell-based; settings: for First indication (>2%) of haemolysis: 24 h incubation with red blood cells
Description: Freshly-drawn human blood was collected using lithium heparin vacuum blood collection tubes (Vacutainer, BD Australia). Erythrocytes were separated by centrifugation for 10 min at 1000 g at 10° C. and washed six times with phosphate-buffered saline (PBS) solution and diluted with PBS to a 10% solution. The concentration of erythrocytes was determined by haemocrit centrifugation (Biofuge Haemo, Heraeus instruments). A 1% Triton-X solution was prepared as the positive control. The complexes to be tested were dissolved in PBS to a stock solution of 2048 mg ml^−1 and two-fold diluted in PBS in round-bottomed 96-well plates in a final volume of […] in each well. […] red blood cell suspension samples were added to the wells making a concentration range from […] to 512 μg ml^−1 for Rubbn (n=10, 12, 16) and 2 μg ml^−1 to 1024 μg ml^−1 for Rubb7, and the plates with each complex were respectively incubated for 1, 2, 4, 8 and 24 h at 37° C. After incubation, the plates were centrifuged at 1000 g for 4 min. […] of supernatant in each well was transferred to a corresponding well in a new 96-well microtitre plate. The absorbance of each well was measured at 540 nm using a plate reader (Mutiskan Ascent, Thermo). Each complex was analysed in duplicate. The solutions of the metal complex at the same tested concentrations without erythrocytes were measured as a negative control.
The extent of haemolysis induced by incubation of the ruthenium complexes for 24 h with freshly-collected human red blood cells is shown in FIG. 1 and summarised in Table 5 below: […]

THP-1 cells = assay: Cytotoxicity assay (cell count with haemacytometer); format: cell-based, human
Description: Consequently, the toxicity (IC50) against THP-1 cells (a human acute monocytic leukemia cell line and a good model for nucleated eukaryotic cells) was examined (J. […] Human monocytic THP-1 cells were obtained from the American Type Culture Collection (ATCC, Rockville, Md., USA). […] Cells were seeded at a density of 5×10^5 per well in a sterile flat bottom 96-well plate, and incubated with the desired drug concentration in duplicate, to a total volume of […]. The concentration range for all the complexes was between […]. The plates containing each complex were respectively incubated for 24 and 48 h at 37° C. with 5% CO2. After incubation, the concentration of cells in each well was counted with a haemacytometer and IC50 values were calculated and the results are summarise in Table 6 below: […]

[2] = system: Plasmodium falciparum strain D6; assay: [3H]-hypoxanthine growth inhibition assay; format: cell-based; settings: Plasmodium falciparum, D6, 96 h
Description: (§4) The in vitro antimalarial activities of two of the dinuclear ruthenium(II) complexes and chloroquine were assessed by exposing P. falciparum strains to ten serially diluted two-fold concentrations of each compound. Parasite growth was measured by uptake of tritiated [^3H]-hypoxanthine into newly synthesised parasitic DNA.
(§5) The [^3H]-hypoxanthine growth inhibition assay (Desjardins et al., 1979 Antimicrobial Agents Chemother 16: 710-718) was used to evaluate the in vitro antimalarial activity of the compounds. Briefly, synchronised parasite cultures (>90% rings, 6 to 8 h post invasion) in [^3H]-RPMI-LPLF complete medium with 0.5% parasitaemia and 2% haematocrit were exposed to the compounds at ten two-fold concentrations, ranging from 10,000 to 20 nM in 96-well microtitre plates. Chloroquine was used as a reference drug. Uninfected RBCs at 2% haematocrit were used as background controls. For the 96 h exposure period, the plates were incubated in the gas mixture at 37° C. for approximately 48 h, followed by the addition of 0.2 μCi of ^3H-hypoxanthine (GE Healthcare, Amersham) in [^3H]-RPMI-1640-LPLF to each well and a further 48 h of incubation and then frozen at −20° C. Plates were thawed and harvested using Tomtech Harvester 96 Mach III and radioactive counts were obtained using Wallac TriLux 1450 Microbeta Liquid Scintillation Counter (Perkin Elmer, USA). All assays were performed in triplicate for each strain and at least on two separate occasions.
(§6) Tritiated hypoxanthine uptake data were analysed in Graphpad Prism V5.0 software (GraphPad Software Inc. USA). The concentrations of the dinuclear ruthenium(II) complexes and chloroquine were transformed into logarithmic values. After subtracting the background values, the data from drug-treated wells were normalised against drug-free control wells. Non-linear regression analysis was carried out of the compound's concentration versus parasitic hypoxanthine incorporation. The in vitro antimalarial activity of the compound is defined as inhibitory concentrations (IC50) and (IC90) that cause 50% and 90% inhibition of parasite growth as determined by measuring [^3H]-hypoxanthine incorporation.

[3] = system: Plasmodium falciparum strain W2; assay: [3H]-hypoxanthine growth inhibition assay; format: cell-based; settings: Plasmodium falciparum, W2, 96 h
Description: as §4, §5, §6

[4] = all the tested concentrations, over 24 h

Molecule | MIC S. aureus (S. aureus ATCC 25923) [µg/mL] | MIC MRSA [1] [µg/mL] | MIC E. coli (E. coli ATCC 25922) [µg/mL] | MIC P. aeruginosa (P. aeruginosa ATCC 27853) [µg/mL] | MIC S. epidermidis (S. epidermidis) | MIC S. typhimurium (S. typhimurium) | MIC E. faecalis (E. faecalis) | MIC VRE (VRE) | MIC A. baumanii (A. baumanii) | First indication (>2%) of haemolysis (human red blood cells) [µg/mL] | haemolytic activity (human red blood cells; at 10 μM, over 24 h) | IC50 (THP-1 cells; 24 h) [µM] | IC50 THP-1 (THP-1 cells; 24 h) [µg/mL] | IC50 (THP-1 cells; 48 h) [µM] | IC50 THP-1 (THP-1 cells; 48 h) [µg/mL] | haemolytic activity (human red blood cells; [4]) | further results
ΔΔ-[{Ru(phen)2}2(μ-bb12)](PF6)4 [ΔΔ-Rubb12] | 1 | 1 | 2 | 16 | 0.5 | 8 | 4 | 2 | 8 | 16 | essentially exhibited no haemolysis | 86 | 135 | 57 | 90 |  | 
Cc1cc[n+]2c(c1)-c1cc(CCCCCCCc3cc[n+]4c(c3)-c3cc(C)cc[n+]3[Ru-4]435([n+]4cccc6ccc7ccc[n+]3c7c64)[n+]3cccc4ccc6ccc[n+]5c6c43)cc[n+]1[Ru-4]213([n+]2cccc4ccc5ccc[n+]1c5c42)[n+]1cccc2ccc4ccc[n+]3c4c21.F[P-](F)(F)(F)(F)F.F[P-](F)(F)(F)(F)F.F[P-](F)(F)(F)(F)F.F[P-](F)(F)(F)(F)F [ΔΔ-Rubb7, [{Ru(phen)2}2(μ-bb7)](PF6)4] | 16 | 32 | 16 | 128 | 1 | >128 | 32 | 16 | 64 | 64 |  | 266 | 400 | 173 | 260 | no significant haemolytic activity | 
ΔΔ-[{Ru(phen)2}2(μ-bb16)](PF6)4 [ΔΔ-Rubb16] | 1 | 1 | 4 | 8 | 1 | 8 | 2 | 2 | 8 | 4 | noticeably increased | 48 | 78 | 25 | 40 |  | haemolytic activity (human red blood cells; at 10 μM, for 8 h): low
Cc1ccnc(-c2cc(CCCCCCCCCCc3ccnc(-c4cc(C)ccn4)c3)ccn2)c1.F[P-](F)(F)(F)(F)F.F[P-](F)(F)(F)(F)F.F[P-](F)(F)(F)(F)F.F[P-](F)(F)(F)(F)F.[Ru+2].[Ru+2].c1cnc2c(c1)ccc1cccnc12.c1cnc2c(c1)ccc1cccnc12.c1cnc2c(c1)ccc1cccnc12.c1cnc2c(c1)ccc1cccnc12 [ΔΔ-Rubb10, [{Ru(phen)2}2(μ-bb10)](PF6)4] | 4 | 4 | 4 | 64 | 0.5 | 32 | 8 | 4 | 64 | 32 |  | 194 | 300 | 103 | 160 | no significant haemolytic activity | 
CCN(CC)CCCC(C)Nc1ccnc2cc(Cl)ccc12 (centres unmarked) [chloroquine, reference compound] |  |  |  |  |  |  |  |  |  |  |  |  |  |  |  |  | IC50 ([2]; read-out: IC50 D6): 0.0098 µM; IC90 ([2]; read-out: IC90 D6): 0.0125 µM; IC50 ([3]; read-out: IC50 W2): 0.176 µM; IC90 ([3]; read-out: IC90 W2): 0.383 µM
